From patent US12577247B2 (BUGWORKS RESEARCH, INC., priority 2021, dated 2026)
Like-named read-outs stand apart in the source and are kept apart here.

Tests used:
[1] = system: human Peripheral blood mononuclear cells (PBMCs); assay: Cytokine restoration assay in human PBMCs (IL-2, TNF-α) under NECA; type: cell-based; settings: PBMC, NECA 5 μM, anti CD3/28 Dynabeads, 48 hours
Source text: The ability of the invention compounds disclosed herein to restore the cytokines (IL-2 and TNF-α) release under adenosine agonist (NECA) environment evaluated using human Peripheral blood mononuclear cells (PBMCs). Peripheral blood was collected from healthy adult individuals in vacutainer tube. Peripheral blood mononuclear cells (PBMCs) were isolated via density gradient centrifugation, which uses Ficoll (Histopaque buffer) combined with short, low-speed centrifugation, to separate different cell populations. Diluted defibrinated blood was layered on a Ficoll and centrifuged at 1800 rpm for 20 minutes at 22° C. Differential migration of cells during centrifugation results in the formation of layers containing different cell types. The bottom layer contains erythrocytes. Remaining cells (i.e., lymphocytes, monocytes, and platelets) that are not dense enough to penetrate the Ficoll media layers (densities of 1.0770 g/ml), forms a buffy coat at the interface between the upper plasma layer and the Ficoll media layer. After carefully collected the buffy coat excess of platelets, Ficoll and plasma were removed by washing it with isotonic sterile phosphate buffered saline (PBS) and resulting cell pellet was resuspended in RPMI media with 5% FBS an P/S. The isolated PBMCs were allowed to be conditioned for an hour at 37° C. in a CO2 incubator. These cells were subsequently used for specific downstream assay. Isolated PBMC (3×10^5 cells/200 μl) were plated in 96 well microtiter plate in RPMI media with 5% FBS in presence of 100 units of penicillin plus 100 μg/ml streptomycin. NECA was added at a final concentration of 5 μM, control wells were maintained without NECA suppression (i.e., no NECA control). The assay plates were incubated at 37° C. for 4 hours in a CO2 incubator. Various concentrations of test compounds were added into respective wells in triplicates. Pre-washed anti CD3/28 Dynabeads (2.5 μL) was added for CD4 and CD8 + T-cell stimulation (to obtain a bead-to-cell ratio of 1:1). The assay plate was incubated at 37° C. in 5% CO2 and 20% ambient O2 maximum for 48 hours. At the end of 48 hours, the activated PBMC were harvested, and culture supernatants were used directly for further analysis. Forty-eight hours post treatment, 15 μL of cell-free supernatant was collected and assayed for secreted IL2 using the human Interleukin 2 (hIL2)—LANCE Ultra Detection Kit (Perkin Elmer). Similarly, level of soluble Tumor Necrosis Factor alpha (TNFα) was determined using human TNFα LANCE Ultra Detection Kit (Perkin Elmer). T-FRET signal was measured with Tecan spark multimode plate reader. Data was analyzed by graph-pad prism9. EC50 s of the compounds of Formula (I) in restoration of cytokine release under adenosine agonist from the human PBMCS are presented in Table 2

A2B receptor = target: T1, A2B receptor (Homo sapiens, UniProt P29275); assay: A2bR antagonism IC50, cAMP TR-FRET in HEK-293 cells, high concentration of adenosine (30 μM); settings: A2BR IC50 (nM) (@30 μM Adenosine), HEK-293 cells expressing A2B receptor; agonist adenosine 30 μM; 2% HSA; inhibition of cAMP;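 note: compounds preincubated 10 min with cells, then adenosine stimulation 30 min at room temperature in buffer with Rolipram 100 µM and EHNA 30 µM, TR-FRET read after 1 h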
T1 sequence (P29275 1-332): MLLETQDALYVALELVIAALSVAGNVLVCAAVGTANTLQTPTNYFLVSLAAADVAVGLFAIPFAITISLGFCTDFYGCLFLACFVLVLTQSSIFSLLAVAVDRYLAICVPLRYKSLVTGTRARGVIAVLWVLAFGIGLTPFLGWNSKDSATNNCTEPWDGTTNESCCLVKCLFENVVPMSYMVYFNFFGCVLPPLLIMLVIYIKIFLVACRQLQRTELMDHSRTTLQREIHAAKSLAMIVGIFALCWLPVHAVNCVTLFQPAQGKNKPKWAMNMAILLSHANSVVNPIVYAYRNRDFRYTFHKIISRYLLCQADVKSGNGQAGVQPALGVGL

[2] = Plasma protein binding, equilibrium dialysis, rat; type: in vitro ADME; settings: plasma (10% plasma, extrapolated to 100% plasma), Sprague-Dawley plasma, 18 hours at 37° C.
Method: (§1) Protein binding is measured using the equilibrium dialysis technique. Compound is added to 10% plasma giving a concentration of 10 μM and dialysed with isotonic buffer for 18 hours at 37° C. The plasma and buffer solutions are analysed using generic LC UV/MS and the first apparent binding constant for the compound derived. The binding constant is then used to determine the % free in 100% plasma
(§2) The percentage of plasma bound/unbound fraction preparation was calculated as follows
(§3) [formula] [formula] where, • Tc=Total plasma concentration was determined by the calculated concentration on the plasma side of the chamber • Fc=[…] was determined by the calculated concentration on the buffer side of the chamber • To=Total compound concentration determined before analysis.

[3] = Metabolic stability and intrinsic clearance in rat hepatocytes (with IVIVE); type: in vitro ADME; settings: Rat hepatocytes
Method: (§4) The metabolic stability was expressed as the percentage of parent remaining is calculated from the peak area ratio of NCE remaining after incubation (tx) compared to the time zero (t0) incubation. The percentage of parent test compound remaining at each time point was calculated by comparing the peak area ratio of test compound after incubation (tx) with peak area of time zero (t0) incubation. Similarly, half-life (t½) was calculated using following equation:
(§5) [formula] The intrinsic clearance (Clint) was calculated using the following equations:
(§6) [formula] Scaling factors to represent […] million cells/gm liver and liver/kg body wt.

Rat hepatocytes = assay: as above; type: in vitro ADME; settings: Rat; for Predicted CLh: IVIVE from hepatocyte CLint; for Hepatocyte Clint: Table 6 (IVIVE)
Method: as §4, §5, §6

[4] = Plasma protein binding, equilibrium dialysis, dog; type: in vitro ADME; settings: plasma (10% plasma, extrapolated to 100% plasma), Beagle plasma, 18 hours at 37° C.
Method: as §1, §2, §3

[5] = read-out: IL-2 restoration EC50
[6] = read-out: TNF-α restoration EC50

| IC50 (A2B receptor) [nM] | fraction unbound at 18 h, 10 µM [2] | hepatocyte CLint at 0.5 μM [3] [µL/min/1e6 cells] | Predicted CLh (Rat hepatocytes) [mL/min/kg] | Hepatocyte Clint (Rat hepatocytes) [μl/min/10^6] | fraction unbound at 18 h, 10 µM [4] | SMILES | EC50 [1, 5] [nM] | EC50 [1, 6] [nM] |
| --- | --- | --- | --- | --- | --- | --- | --- | --- |
| 1830 | 0.249 | < 8.2 | 23 | <8.2 | 0.156 | CCc1c(C)nn2c(N)c(C#N)c(NCCc3ccn(C4(CO)CC4)n3)nc12 [Example 39, 7-amino-3-ethyl-5-((2-(1-(1-(hydroxymethyl)cyclopropyl)-1H-pyrazol-3-yl)ethyl)amino)-2-methylpyrazolo[1,5-a] pyrimidine-6-carbonitrile] | 4.2 | 2.3 |
| 521 | 0.139 | 4.7 | 16 | 4.7 | 0.15 | CCc1c(C)nn2c(N)c(C#N)c(NCCc3ccn(C4COCC4CO)n3)nc12 (single isomer, unassigned; (-)) [Example 122b, (−)-7-amino-3-ethyl-5-((2-(1-(4-(hydroxymethyl)tetrahydrofuran-3-yl)-1H-pyrazol-3-yl)ethyl)amino)-2-methyl pyrazolo[1,5-a]pyrimidine-6-carbonitrile] | 1.4 | 1.2 |
| 2320 | 0.0964 | 34 | 41 | 34 | 0.09 | Cc1cccc(CCNc2nc3c(C)c(C)nn3c(N)c2C#N)n1 [Example 13, 7-amino-5-((2-(6-methylpyridin-2-yl)ethyl)amino)-2,3-dimethylpyrazolo[1,5-a]pyrimidine-6-carbonitrile] | 5.5 | 5.2 |
